Results: patent publication US11725010B2, “Polyheterocyclic compounds as METTL3 inhibitors” (Storm Therapeutics Limited, priority 2019, dated 2023)
pIC50: −log10 of the molar value.

Legend:
METTL3/14 = METTL3/14 (Homo sapiens (Human), UniProt Q86U44)
Caov-3 cells = assay: Caov3 CTG proliferation assay; format: cell-based; details: Homo sapiens, Caov-3; treated for 120 hours, CellTiter-Glo luminescence; read-out: Caov3 cells IC50
Experimental: CTG Assay (Caov3 Cell Line)
Upon treatment, Coav-3 cells were incubated for 10 min at RT with the CellTiter-Glo reagent (G7571, Promega). Measurement of the luminescence signal was performed on a microplate reader (Ensight, PerkinElmer).
Caov3 CTG Assay—Proliferation Assay

KASUMI-1 cells = assay: Kasumi cell assay (CellTiter-Glo cell growth); format: cell-based; details: Homo sapiens, Kasumi 1; treated for 120 hours, CellTiter-Glo luminescence; read-out: KASUMI1 cells IC50
Experimental: Upon treatment, Kasumil cells were incubated for 10 min at RT with the CellTiter-Glo reagent (G7571, Promega). Measurement of the luminescence signal was performed on a microplate reader (Ensight, PerkinElmer).

Sequence of METTL3/14 (Q86U44 whole entry): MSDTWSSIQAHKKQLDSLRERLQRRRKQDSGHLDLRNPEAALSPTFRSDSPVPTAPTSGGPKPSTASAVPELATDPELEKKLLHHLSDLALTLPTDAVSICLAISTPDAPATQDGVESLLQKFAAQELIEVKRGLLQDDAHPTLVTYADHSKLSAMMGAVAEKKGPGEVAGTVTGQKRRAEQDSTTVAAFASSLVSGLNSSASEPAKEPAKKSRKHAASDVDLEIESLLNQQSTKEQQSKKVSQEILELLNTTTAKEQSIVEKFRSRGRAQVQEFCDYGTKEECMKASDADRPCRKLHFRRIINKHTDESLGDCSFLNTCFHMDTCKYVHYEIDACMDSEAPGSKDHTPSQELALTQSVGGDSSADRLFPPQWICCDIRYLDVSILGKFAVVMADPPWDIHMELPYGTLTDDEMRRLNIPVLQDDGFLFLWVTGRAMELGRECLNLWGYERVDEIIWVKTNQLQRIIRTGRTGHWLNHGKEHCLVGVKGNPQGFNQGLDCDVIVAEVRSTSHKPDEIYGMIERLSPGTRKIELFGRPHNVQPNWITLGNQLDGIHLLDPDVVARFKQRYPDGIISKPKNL
Sequence of METTL3/14 (Q9HCE5 whole entry partner): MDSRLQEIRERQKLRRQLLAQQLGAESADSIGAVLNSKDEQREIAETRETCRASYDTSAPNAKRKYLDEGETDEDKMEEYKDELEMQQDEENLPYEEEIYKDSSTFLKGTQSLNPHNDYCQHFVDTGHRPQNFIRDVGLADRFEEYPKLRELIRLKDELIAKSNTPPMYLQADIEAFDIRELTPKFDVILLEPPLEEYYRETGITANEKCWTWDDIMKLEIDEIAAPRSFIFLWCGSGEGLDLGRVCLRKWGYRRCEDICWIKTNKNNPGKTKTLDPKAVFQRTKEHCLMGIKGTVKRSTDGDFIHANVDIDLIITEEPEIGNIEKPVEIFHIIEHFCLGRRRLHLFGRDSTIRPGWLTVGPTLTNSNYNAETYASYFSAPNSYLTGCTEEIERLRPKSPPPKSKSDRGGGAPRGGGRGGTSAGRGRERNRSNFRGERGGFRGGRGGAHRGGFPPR

Row | SMILES | pIC50 (METTL3/14) | pIC50 (Caov-3 cells) | pIC50 (KASUMI-1 cells)
1 | O=C(NCc1ccc2cc(CN3CC4(CCCC4)C3)[nH]c2c1)c1cc(=O)n2ccccc2n1 [Compound 81, N-{[2-({2-azaspiro[3.4]octan-2-yl}methyl)-1H-indol-6-yl]methyl}-4-oxo-4H-pyrido[1,2-a]pyrimidine-2-carboxamide] | 8.21 | 6.25 | 5.99
2 | O=C(NCc1ccc2cc(CNCC3CC34CC4)[nH]c2c1)c1cc(=O)n2ccccc2n1 (centres unmarked) [Compound 109, 4-oxo-N-[(2-{[({spiro[2.2]pentan-1-yl}methyl)amino]methyl}-1H-indol-6-yl)methyl]-4H-pyrido[1,2-a]pyrimidine-2-carboxamide] | 8.21 | 6.22 | 5.83
3 | O=C(NCc1ccc2c(F)c(CNCC3CCC3)[nH]c2c1)c1cc(=O)n2ccccc2n1 [Example 45, N-[(2-{[(cyclobutylmethyl)amino]methyl}-3-fluoro-1H-indol-6-yl)methyl]-4-oxo-4H-pyrido[1,2-a]pyrimidine-2-carboxamide] | 8.21 | 6.24 | 6.12
4 | CC(C)(C)C(C)(C)NCc1cc2ccc(CNC(=O)c3cc(=O)n4ccccc4n3)cc2[nH]1 [Compound 100, 4-oxo-N-[(2-{[(2,3,3-trimethylbutan-2-yl)amino]methyl}-1H-indol-6-yl)methyl]-4H-pyrido[1,2-a]pyrimidine-2-carboxamide] | – | 6.16 | 5.59
5 | N#Cc1ncc(F)cc1-c1cn(Cc2ccc3cc(CNCC4CCC4)[nH]c3c2)nn1 [Example 152, 3-(1-((2-(((cyclobutylmethyl)amino)methyl)-1H-indol-6-yl)methyl)-1H-1,2,3-triazol-4-yl)-5-fluoropicolinonitrile] | – | 5.27 | 5.00
6 | O=C(NCc1ccc2cc(CN3CCC4(CCC4)C3)[nH]c2c1)c1cc(=O)n2ccccc2n1 [Compound 104, N-{[2-({6-azaspiro[3.4]octan-6-yl}methyl)-1H-indol-6-yl]methyl}-4-oxo-4H-pyrido[1,2-a]pyrimidine-2-carboxamide] | 8.21 | 6.62 | 6.18
7 | [2H]C([2H])(NCC1CCC1)c1cc2ccc(CNC(=O)c3cc(=O)n4ccccc4n3)cc2[nH]1 [Example 47, N-[[2-[(Cyclobutylmethylamino)-dideuterio-methyl]-1H-indol-6-yl]methyl]-4-oxo-pyrido[1,2-a]pyrimidine-2-carboxamide] | 8.21 | 6.73 | 6.46
8 | O=C(NCc1ccc2cc(CN3CC(C4CCC4)C3)[nH]c2c1)c1cc(=O)n2ccccc2n1 [Compound 95, N-({2-[(3-cyclobutylazetidin-1-yl)methyl]-1H-indol-6-yl}methyl)-4-oxo-4H-pyrido[1,2-a]pyrimidine-2-carboxamide] | 8.21 | 6.02 | 5.50
9 | O=C(NCc1cc2[nH]c(CNCC34CC(C3)C4)cc2cn1)c1cc(=O)n2ccccc2n1 [Compound 131, N-[(2-{[({bicyclo[1.1.1]pentan-1-yl}methyl)amino]methyl}-1H-pyrrolo[3,2-c]pyridin-6-yl)methyl]-4-oxo-4H-pyrido[1,2-a]pyrimidine-2-carboxamide] | 8.21 | 6.62 | 5.94
10 | O=C(NCc1cc2[nH]c(CNCC3CCC3)cc2cn1)c1cc(=O)n2ccccc2n1 [Compound 130, N-[(2-{[(cyclobutylmethyl)amino]methyl}-1H-pyrrolo[3,2-c]pyridin-6-yl)methyl]-4-oxo-4H-pyrido[1,2-a]pyrimidine-2-carboxamide] | 8.21 | 6.34 | 5.50
11 | CC(NCc1cc2ccc(CNC(=O)c3cc(=O)n4ccccc4n3)cc2[nH]1)C12CC(F)(C1)C2 (centres unmarked) [Compound 120, N-[(2-{[(1-{3-fluorobicyclo[1.1.1]pentan-1-yl}ethyl)amino]methyl}-1H-indol-6-yl)methyl]-4-oxo-4H-pyrido[1,2-a]pyrimidine-2-carboxamide] | 8.21 | 6.69 | 6.35
12 | O=C(NCc1ccc2cc(CN3CC4(CCCCC4)C3)[nH]c2c1)c1cc(=O)n2ccccc2n1 [Compound 90, N-{[2-({2-azaspiro[3.5]nonan-2-yl}methyl)-1H-indol-6-yl]methyl}-4-oxo-4H-pyrido[1,2-a]pyrimidine-2-carboxamide] | 8.21 | 6.22 | 5.90
13 | O=C(NCc1ccc2cc(CNCC34CC(F)(C3)C4)[nH]c2c1)c1cc(=O)n2ccsc2n1 [Example 125, N-[(2-{[({3-fluorobicyclo[1.1.1]pentan-1-yl}methyl)amino]methyl}-1H-indol-6-yl)methyl]-5-oxo-5H-[1,3]thiazolo[3,2-a]pyrimidine-7-carboxamide] | 8.21 | 6.67 | 6.30
14 | O=C(NCc1ccc2cc(CNC3CC34CCC4)[nH]c2c1)c1cc(=O)n2ccccc2n1 (centres unmarked) [Compound 110, 4-oxo-N-({2-[({spiro[2.3]hexan-1-yl}amino)methyl]-1H-indol-6-yl}methyl)-4H-pyrido[1,2-a]pyrimidine-2-carboxamide] | 8.21 | 6.39 | 5.94
15 | c1cc(-c2cn(Cc3ccc4cc(CN5CC6(CCC6)C5)[nH]c4c3)nn2)c2cn[nH]c2c1 [Compound 122, 4-(1-{[2-({2-azaspiro[3.3]heptanean-2-yl}methyl)-1H-indol-6-yl]methyl}-1H-1,2,3-triazol-4-yl)-1H-indazole] | 8.21 | 6.28 | 5.96
16 | COc1cc(-c2cn(Cc3ccc4cc(CNCC5CCC5)[nH]c4c3)nn2)c2cncn2c1 [Example 63, N-(cyclobutylmethyl)-1-[6-[[4-(6-methoxyimidazo[1,5-a]pyridin-8-yl)triazol-1-yl]methyl]-1H-indol-2-yl]methanamine] | – | 6.59 | 6.06
17 | O=C(NCc1ccc2cc(CNCC34CCC(C3)C4)[nH]c2c1)c1cc(=O)n2ccccc2n1 [Compound 76, N-[(2-{[({bicyclo[2.1.1]hexan-1-yl}methyl)amino]methyl}-1H-indol-6-yl)methyl]-4-oxo-4H-pyrido[1,2-a]pyrimidine-2-carboxamide] | 8.21 | 6.62 | 6.16
18 | O=C(NCc1ccc2cc(CNC3(C4CCC4)CC3)[nH]c2c1)c1cc(=O)n2ccccc2n1 [Compound 116, N-[(2-{[(1-cyclobutylcyclopropyl)amino]methyl}-1H-indol-6-yl)methyl]-4-oxo-4H-pyrido[1,2-a]pyrimidine-2-carboxamide] | 8.21 | – | 5.29
19 | CC(C)(C)C1CN(Cc2cc3ccc(CNC(=O)c4cc(=O)n5ccccc5n4)cc3[nH]2)C1 [Compound 97, N-({2-[(3-tert-butylazetidin-1-yl)methyl]-1H-indol-6-yl}methyl)-4-oxo-4H-pyrido[1,2-a]pyrimidine-2-carboxamide] | – | 5.99 | 5.51
20 | COc1cnc(C#N)c(-c2cn(Cc3ccc4cc(CNCC5CCC5)[nH]c4c3)nn2)c1 [Example 151, 3-{1-[(2-{[(Cyclobutylmethyl)amino]methyl}-1H-indol-6-yl)methyl]-1H-1,2,3-triazol-4-yl}-5-methoxy-2-pyridinecarbonitrile] | – | 5.04 | 5.14
21 | CC1CC(CNCc2cc3ccc(CNC(=O)c4cc(=O)n5ccccc5n4)cc3[nH]2)C1 (centres unmarked) [Compound 99, N-{[2-({[(3-methylcyclobutyl)methyl]amino}methyl)-1H-indol-6-yl]methyl}-4-oxo-4H-pyrido[1,2-a]pyrimidine-2-carboxamide] | – | 5.96 | 5.49
